US9689244B2, “Process for water wetting oil-wet surfaces” (BASF SE, priority 2012, dated 2017)

Legend:
Format in all cases: physicochemical
[1] = Cloud point of conventional surfactants in saline water; details: 1% in water having a salinity of 50.000 ppm NaCl
Procedure: For comparative purposes, two conventional surfactants were tested at a concentration of 1% in water having a salinity of 50.000 ppm NaCl and in the usual manner their cloud point was determined.

[2] = Surface tension (DuNouy ring method) and critical micelle formation concentration
Procedure: The surface tension was measured as a function of the concentration of the surface active components using the DuNouy ring method (according to Din 53914). The critical micelle formation concentration (cmc) was derived in the usual manner from the measurement graph.
The salts used were NaCl and CaCl2 at a weight ratio of 9:1 NaCl/CaCl2.

[3] = Interfacial tension between aqueous solution and oil phase (spinning drop tensiometer)
Procedure: The interfacial tension between aqueous solutions of tested compounds and an oil phase were measured with a spinning drop tensiometer (DataPhysics). As the composition of crude oils may vary decane, dodecane, and hexadecane were used as model oils in order to study the range of application of the tested compounds.

[4] = Modification of the wettability: contact angle of oil on oil wet polyethylene platelets; details: for Contact angle: dodecane
Procedure: Polyethylene platelets (3 cm×2 cm) were use as hydrophobic model surfaces for oil wet rocks. As a first step, 5 μl decane or 5 μl dodecane were applied to the polyethylene platelets. The hydrophobic liquids spread on the hydrophobic surface. The contact angle between the oil and the polyethylene surface was measured using a usual contact angle measuring device (DataPhysics) and consequently a value of 0° was obtained. The oil wet platelets were submerged into an aqueous solution of 1 g/l by weight of the compound to be tested. […] The contact angle between oil and the polyethylene surface was measured as function of time. Furthermore, it was inspected visually whether oil droplets became detached from the surface.

[5] = 25 °C, brine NaCl/CaCl2 (9:1) 10,000 ppm
[6] = 25 °C, brine NaCl/CaCl2 (9:1) 100,000 ppm
[7] = 60 °C, brine NaCl/CaCl2 (9:1) 10,000 ppm
[8] = 60 °C, brine NaCl/CaCl2 (9:1) 100,000 ppm

| Substance | Cloud point [1] | ST At 1 g/l ([2]; 25 °C, brine 10,000 ppm) | ST At 1 g/l ([2]; 25 °C, brine 100,000 ppm) | cmc [2, 5] | cmc [2, 6] | ST At 1 g/l ([2]; 60 °C, brine 10,000 ppm) | ST At 1 g/l ([2]; 60 °C, brine 100,000 ppm) | cmc [2, 7] | cmc [2, 8] | IFT after 60 min, 1 g/l of sample in aqueous phase, decane ([3]; 25 °C, brine 10,000 ppm) | IFT after 60 min, 1 g/l of sample in aqueous phase, decane ([3]; 25 °C, brine 100,000 ppm) | IFT after 60 min, 1 g/l of sample in aqueous phase, decane ([3]; 60 °C, brine 10,000 ppm) | IFT after 60 min, 1 g/l of sample in aqueous phase, decane ([3]; 60 °C, brine 100,000 ppm) | IFT after 60 min, 1 g/l of sample in aqueous phase, docecane ([3]; 25 °C, brine 10,000 ppm) | IFT after 60 min, 1 g/l of sample in aqueous phase, docecane ([3]; 60 °C, brine 10,000 ppm) | IFT after 60 min, 1 g/l of sample in aqueous phase, hexadecane ([3]; 25 °C, brine 10,000 ppm) | IFT after 60 min, 1 g/l of sample in aqueous phase, hexadecane ([3]; 60 °C, brine 10,000 ppm) | further results |
| --- | --- | --- | --- | --- | --- | --- | --- | --- | --- | --- | --- | --- | --- | --- | --- | --- | --- | --- |
| C13-alcohol+20 EO | 86 °C |  |  |  |  |  |  |  |  |  |  |  |  |  |  |  |  |  |
| C16/18-alcohol+80 EO | 87 °C |  |  |  |  |  |  |  |  |  |  |  |  |  |  |  |  |  |
| Saccharose * 40 EO diester with C12/C18 fatty acid [Compound S2] |  | 34.6 mN/m | 34.6 mN/m | 0.03 g/L | 0.03 g/L | 27.7 mN/m | 28.3 mN/m | 0.04 g/L | 0.02 g/L | 2.3 mN/m | 2.1 mN/m | 0.46 mN/m | 0.36 mN/m | 2.0 mN/m | 0.34 mN/m | 2.2 mN/m | 0.40 mN/m |  |
| Saccharose* 20 EO monoester with C16/C18 fatty acid [Compound S1] |  | 33.7 mN/m | 34.5 mN/m | 0.03 g/L | 0.02 g/L | 29.6 mN/m | 29.1 mN/m | 0.03 g/L | 0.02 g/L | 3.9 mN/m | 2.4 mN/m | 0.45 mN/m | 1.2 mN/m | 2.9 mN/m | 0.19 mN/m | 4.0 mN/m | 0.55 mN/m | Interfacial tension (IFT) between water and hydrocarbons of different chain lengths, change on addition of wettability modifier ([3]; hydrocarbons of different chain lengths): decreases significantly; Contact angle ([4]; 25° C., brine 10,000 ppm + 1 g/l S1, time 0 min): 6 °; Contact angle ([4]; 25° C., brine 10,000 ppm + 1 g/l S1, time 30 min): 13 °; Contact angle ([4]; 25° C., brine 10,000 ppm + 1 g/l S1, time 45 min): 14 °; Contact angle ([4]; 25° C., brine 10,000 ppm + 1 g/l S1, time 60 min): 17 °; Contact angle ([4]; 25° C., brine 10,000 ppm + 1 g/l S1, time 90 min): 22 °; Contact angle ([4]; 25° C., brine 10,000 ppm + 1 g/l S1, time 180 min): beginning; Contact angle ([4]; 25° C., brine 100,000 ppm + 1 g/l S1, time 0 min): 7 °; Contact angle ([4]; 25° C., brine 100,000 ppm + 1 g/l S1, time 30 min): 26 °; Contact angle ([4]; 25° C., brine 100,000 ppm + 1 g/l S1, time 45 min): 74 °; Contact angle ([4]; 25° C., brine 100,000 ppm + 1 g/l S1, time 60 min): oil already detached; Time of contact after which oil is detached from the surface ([4]; 60° C.): 2 min; Contact angle ([4]; 60° C., brine 10,000 ppm + 1 g/l S1, time 60 min): beginning; Contact angle ([4]; 60° C., brine 100,000 ppm + 1 g/l S1, time 0 min): oil already |
